# Read-outs that look alike come from different tables or passages of the source.
# Columns and labels:
# [1] = tested on: electrically induced convulsions (MES) in rats; assay: maximal electroshock seizure test (MES), rats, oral; assay type: in vivo, rat; settings: for N/F (fraction of rats responded): MES; for ED50: Rattus norvegicus, oral administration, read-out: ED50 (median effective dose) in the MES model
# From the text: (§1) The first model, the maximal electroshock seizure test (MES), is used to show efficacy for antiepileptic agents against partial and generalized seizure type epilepsy, the common epilepsy among therapy resistant epileptic patients. The second model, the subcutaneous metrazole test (scMet) measures seizure threshold and is a standard screening procedure to show efficacy for agents against seizure threshold and absence seizures.
# [2] = tested on: chemically induced convulsions (scMet) in rats; assay: subcutaneous metrazole test (scMet), rats, oral; assay type: in vivo, rat; settings: for ED50: Rattus norvegicus, po, read-out: ED50 in the scMet model; for N/F (fraction of rats responded): scMET
# From the text: as §1
# [3] = tested on: electrically induced convulsions (MES) in mice; assay: maximal electroshock seizure test (MES), mice, ip; assay type: in vivo; settings: Mus musculus, ip administration, read-out: ED50 in the MES model
# From the text: as §1
# [4] = tested on: chemically induced convulsions (scMet) in mice; assay: subcutaneous metrazole test (scMet), mice, ip; assay type: in vivo; settings: Mus musculus, read-out: ED50 in the scMet model
# From the text: as §1
# [5] = tested on: tactile allodynia in SNL rats; assay: rat spinal nerve ligation (SNL) model for neuropathic pain, von Frey filaments; assay type: in vivo
# Experimental: Experiments were performed on male Sprague-Dawley rats (Harlan laboratories, Jerusalem, Israel) weighing 175–200 g. The mechanical sensitivity (tactile allodynia) of the foot was quantified by the occurrence of foot withdrawal in response to normally innocuous mechanical stimuli using nine different von Frey filaments (VFF) ranging from 0.6 to 26 g. The rats were placed on a metal mesh floor covered with a transparent plastic dome and a period of acclimatization was allowed prior to testing. VFF were applied from underneath the mesh floor to the plantar surface of the foot. Each trial consisted of repeated applications of each of the VFFs in an ascending order for 5 times, each for a period of 1 s. If the rat withdrew the foot at least 3 times out of 5 at a specific VFF no further ascending filaments were tested and this filament was considered as a withdrawal threshold (response). Mechanical stimulus trials with the series of ascending VFF were repeated 2 times for a given time point. The repeated measurements were averaged and taken as the paw withdrawal threshold on a given time point.
# For drug testing, the effect on neuropathic pain was measured 5–6 days following operation. Rats responding to mechanical stimuli of 10 g or less (in the operated leg) were eligible for the study.
# The procedure of ligation and cut of the spinal nerves for induction of neuropathic pain was performed as previously described by Sheen and Chung (Sheen, K. and Chung, J. M., Signs of neuropathic pain depend on signals from injured nerve fibers in a rat model, Brain Research 610: 62–68 (1993)). Briefly, under ketamine-xylazine anaesthesia rats were placed in a prone position and the left paraspinal muscles were separated from spinous processes at the L4-S2 level. Part of the L6 transverse process was removed and the L4–L6 spinal nerves were identified. The L5–L6 spinal nerves were isolated and tightly ligated and cut, distal to the dorsal root ganglion and proximal to the formation of the sciatic nerve. Following complete […] the wound was sutured.
# For all the studies, appropriate amounts of the tested compound were suspended in 0.5% methylcellulose to a volume of 4 mL/kg body weight. TMC-Urea and methylcellulose (MC, vehicle) were administered intraperitoneally (i.p) to rats at postoperative days 7, 14 and 21 in a double blind randomized crossover manner.
# Rats that obtained threshold of 15 g and above, back to pre-operation baseline, were regarded free of tactile allodynia.
# Median effective dose (ED50) and its 95% confidence intervals were calculated using the pharmacodynamic software package WinNonlin, version 4.0.1 (SCI Software, Lexington, Ky., U.S.A.).
# Threshold data from VFF testing are presented as actual threshold (absolute) in grams and as percent of absolute responders.
# For statistical analyses the nonparametric two-tailed Mann-Whitney U was used. A p value less than 0.05 was considered significant.
# rats [6] = assay: neurotoxicity, gait and stance test, rats, po; settings: for protective index or safety of margin TD50/ED50: TD50 / MES ED50
# Experimental: (§2) Neurotoxicity of the claimed agents was assessed in mice (ip. administration) in the rotorod ataxia test and in rats (po. administration) in the gait and stance test which assesses minimal neurotoxicity. The term qauntitating the neurotoxicity is the median neurological toxic dose (TD50).
# The protective index (PI) is defined as the ratio of TD50 and ED50 (PI=TD50/ED50). The PI is used to show a useful separation between neurotoxicity and antiepileptic activity. The larger the PI, the better the separation between neurotoxicity and efficacious doses.
# [7] = neurotoxicity, rotorod ataxia test, mice, ip; settings: mouse, in vivo
# Experimental: as §2
# [8] = tested on: electrically induced convulsions (MES) in rats; settings: literature comparison; cited from earlier work
# [9] = tested on: electrically induced convulsions (MES) in mice; settings: literature comparison; cited from earlier work
# [10] = tested on: animal models of epilepsy; settings: cited from earlier work
# mouse model = settings: cited from earlier work
# [11] = tested on: chemically induced convulsions (scMet) in rats; settings: literature comparison, inactive at 250 mg/kg; cited from earlier work
# rats [12] = settings: comparison values; cited from earlier work
smiles,measurement,setting,value
"CC1(C)C(C(=O)NC(N)=O)C1(C)C [Compound I, N-2,2,3,3-tetramethylcyclopropanecarbonyl urea]",N/F (fraction of rats responded),[1]; dose 10 mg/kg,0/8
same,N/F (fraction of rats responded),[1]; dose 20 mg/kg,4/8
same,N/F (fraction of rats responded),[1]; dose 40 mg/kg,5/8
same,N/F (fraction of rats responded),[1]; dose 80 mg/kg,7/8
same,ED50,[1],29.4 mg/kg
same,ED50,[2],91.8 mg/kg
same,N/F (fraction of rats responded),[2]; dose 25 mg/kg,1/8
same,N/F (fraction of rats responded),[2]; dose 50 mg/kg,3/8
same,N/F (fraction of rats responded),[2]; dose 100 mg/kg,3/8
same,N/F (fraction of rats responded),[2]; dose 200 mg/kg,6/8
same,N/F (fraction of rats responded),[2]; dose 400 mg/kg,8/8
same,ED50,[3],90 mg/kg
same,ED50,[4],125 mg/kg
same,"Allodynic response, Total responders",[5]; 20 mg/kg ip,0/9
same,Allodynic response (number of rats responded/total number of rats),"[5]; 20 mg/kg ip, 30 min",0/9
same,Allodynic response (number of rats responded/total number of rats),"[5]; 20 mg/kg ip, 60 min",0/9
same,Allodynic response (number of rats responded/total number of rats),"[5]; 20 mg/kg ip, 120 min",0/9
same,Allodynic response (number of rats responded/total number of rats),"[5]; 20 mg/kg ip, 180 min",0/9
same,Allodynic response (number of rats responded/total number of rats),"[5]; 20 mg/kg ip, 240 min",0/9
same,"Allodynic response, Total responders",[5]; 60 mg/kg ip,0/9
same,Allodynic response (number of rats responded/total number of rats),"[5]; 60 mg/kg ip, 30 min",0/9
same,Allodynic response (number of rats responded/total number of rats),"[5]; 60 mg/kg ip, 60 min",0/9
same,Allodynic response (number of rats responded/total number of rats),"[5]; 60 mg/kg ip, 120 min",0/9
same,Allodynic response (number of rats responded/total number of rats),"[5]; 60 mg/kg ip, 180 min",0/9
same,Allodynic response (number of rats responded/total number of rats),"[5]; 60 mg/kg ip, 240 min",0/9
same,"Allodynic response, Total responders",[5]; 120 mg/kg ip,3/9
same,Allodynic response (number of rats responded/total number of rats),"[5]; 120 mg/kg ip, 30 min",0/9
same,Allodynic response (number of rats responded/total number of rats),"[5]; 120 mg/kg ip, 60 min",1/9
same,Allodynic response (number of rats responded/total number of rats),"[5]; 120 mg/kg ip, 120 min",3/9
same,Allodynic response (number of rats responded/total number of rats),"[5]; 120 mg/kg ip, 180 min",3/9
same,Allodynic response (number of rats responded/total number of rats),"[5]; 120 mg/kg ip, 240 min",3/9
same,"Allodynic response, Total responders",[5]; 180 mg/kg ip,3/7
same,Allodynic response (number of rats responded/total number of rats),"[5]; 180 mg/kg ip, 30 min",0/7
same,Allodynic response (number of rats responded/total number of rats),"[5]; 180 mg/kg ip, 60 min",1/7
same,Allodynic response (number of rats responded/total number of rats),"[5]; 180 mg/kg ip, 120 min",3/7
same,Allodynic response (number of rats responded/total number of rats),"[5]; 180 mg/kg ip, 180 min",3/7
same,Allodynic response (number of rats responded/total number of rats),"[5]; 180 mg/kg ip, 240 min",3/7
same,"Allodynic response, Total responders",[5]; 240 mg/kg ip,9/10
same,Allodynic response (number of rats responded/total number of rats),"[5]; 240 mg/kg ip, 30 min",0/10
same,Allodynic response (number of rats responded/total number of rats),"[5]; 240 mg/kg ip, 60 min",2/10
same,Allodynic response (number of rats responded/total number of rats),"[5]; 240 mg/kg ip, 120 min",8/10
same,Allodynic response (number of rats responded/total number of rats),"[5]; 240 mg/kg ip, 180 min",8/10
same,Allodynic response (number of rats responded/total number of rats),"[5]; 240 mg/kg ip, 240 min",8/10
same,ED50,"[5]; Rattus norvegicus, ip, 2 h, i.p., at 120 min post-dose, read-out: ED50 (antiallodynic, rats free of tactile allodynia)",171 mg/kg
same,effect on tactile allodynia,"[5]; i.p., significant reduction at 120 to 240 min at 120-240 mg/kg",decreased tactile allodynia in a dose-dependent manner
same,protective index or safety of margin TD50/ED50,rats [6],18.5
same,TD50 (median neurological toxic dose),rats [6]; oral administration,538 mg/kg
"CONC(=O)C1C(C)(C)C1(C)C [Compound V, N-methoxy-2,2,3,3-tetramethylcyclopropane carboxamide]",ED50,[2],35 mg/kg
same,ED50,[3],115 mg/kg
same,ED50,[4],74 mg/kg
same,TD50,[7],166 mg/kg
"CC1(C)C(C(=O)Nc2nnc(S(N)(=O)=O)s2)C1(C)C [Compound VI, 5-(2,2,3,3-tetramethylcyclopropanecarbonylamido)-1,3,4-thiadiazole-2-sulfonamide]",ED50,[3],16 mg/kg
"CN(C)C(=O)NC(=O)C1C(C)(C)C1(C)C [II, 1,1-N,N-dimethyl-2,2,3,3-tetramethylcyclopropanecarbonyl urea]",ED50,[1],87 mg/kg
same,neurotoxicity,"rats [6]; oral, doses up to 500 mg/kg",no neurotoxicity
"CNC(=O)C1C(C)(C)C1(C)C [M-TMCD, N-methyl 2,2,3,3-tetramethylcyclopropane carboxamide]",ED50 in rat-MES,[8],82 mg/kg
same,ED50 in mice-MES,[9],99 mg/kg
same,anticonvulsant potency relative to VPA,[10],approximately 10 times
same,teratogenicity,"mouse model; mouse, in vivo",not teratogenic
same,protective index or safety of margin TD50/ED50,rats [6],2
"CC1(C)C(C(=O)NCC(N)=O)C1(C)C [TMC glycinamide, N-2,2,3,3-tetramethylcyclopropyl carbonyl-glycinamide]",ED50 in rat-MES,[8],82 mg/kg
same,ED50 in the scMet model,[11],> 250 mg/kg
same,ED50 in mice-MES,[9],173 mg/kg
same,TD50 (median neurological toxic dose),rats [12],above 500 mg/kg
same,protective index or safety of margin TD50/ED50,rats [6],> 6.1
CC1(C)C(C(N)=O)C1(C)C [tetramethylcyclopropane carboxamide],teratogenicity,mouse model; mouse model,not teratogenic

# Source: patent US7232929B2, “Amide derivatives of 2,2,3,3-tetramethylcyclopropane carboxylic acid” (Yissum Research Development Company of the Hebrew …, priority 2003, dated 2007)
